In US20250296909A1, “NOVEL BENZENE DERIVATIVE AND IMMUNOSUPPRESSION-RELATED USE THEREOF” (PROVIBIO CO., LTD., priority 2021, published 2025):
Like-named read-outs stand apart in the source and are kept apart here.

Assays:
spleen T cells = assay: T cell proliferation inhibition (CFSE, FACS), CD3/CD28-activated spleen T cells; assay type: cell-based, C57BL/6 mice; conditions: for inhibition at 10 µM / inhibition at 30 µM / inhibition at 50 µM: Mus musculus, T-cell, read-out: Proliferation inhibition rate (%)
Method: To investigate whether the compounds obtained in the Preparation Example have an inhibitory effect on T cell proliferation, the T cell proliferation was determined ex vivo using the fluorescent dye carboxyfluorescein diacetate succinimidyl ester (CFSE), which binds to intracellular molecules by covalent bonds.
Spleens were harvested and minced from C57BL/6 mice at 7 weeks of age, and then single cells were isolated using a strainer (40 μm pore size, SPL). Red blood cells were removed using ACK (Ammonium-Chloride-Potassium) lysis buffer to isolate only leukocytes. Subsequently, CD90.2 microbeads (130-121-278, Miltenyi Biotech.) were added, and subjected to react at 4° C. for 20 minutes. After that, spleen T cells were isolated using a MACS Magnetic Stand and LS column. The isolated T cells from the spleen were resuspended in 1 mL of Free media (RPMI-1640+200 U/mL penicillin+200 μg/mL streptomycin), followed by the addition of 0.3 μL of CFSE (10 mM), and reacted at 37° C. for 5 minutes. Subsequently, 10 mL of Free media was added to stop the reaction, and the cells were centrifuged to obtain the cell pellet. RPMI 1640 medium containing 10% FBS, 100 U/mL penicillin, and 100 μg/mL streptomycin was added to suspend the cells, and 2×10^5 cells per well were seeded into a 96-well plate and T cells were activated by treatment with CD3 and CD28 antibodies (each at 0.5 μg/mL).
The compound diluted in DMSO was treated in triplicate at concentrations of 10 μM, 30 μM, and 50 μM, respectively. After incubation at 37° C. with 5% CO2 for 3 days, cell proliferation levels were determined using a FACS Canto machine.
In the FACS graph of FIG. 1, the y-axis represents the quantity (number) of cells, while the x-axis represents the fluorescence level of the cells. […] This reduction in CFSE fluorescence results in a leftward shift along the x-axis in the graph. This indicates cell proliferation.
To collectively indicate the proliferation inhibition rate for the experimental results, the relative value of the proliferation amount after compound administration to the proliferation amount after CD3/CD28+DMSO administration was calculated. Subsequently, it was converted into an inhibition amount and expressed as a percentage, thereby determining the proliferation inhibition rate. Specifically, the proliferation inhibition rate was calculated as follows: […]

[1] = test system: T lymphocyte cell line Jurkat E6-1; assay: Cytotoxicity experiment (CCK-8, relative cell survival); assay type: cell-based; conditions: 24 hours, untreated cells = 100%
Method: To evaluate the cytotoxicity of the compound according to the present invention, the following experiment was conducted.
The T lymphocyte cell line Jurkat E6-1, purchased from the Korean Cell Line Bank, was cultured in RPMI-1640 medium comprising 10% FBS, 100 U/mL penicillin, and 100 μg/mL streptomycin. After culturing, the cells were harvested and centrifuged at 1,300 rpm for 5 minutes. After removal of the supernatant, the cells were resuspended in the same medium at a concentration of approximately 2.2×10^5 cells/mL, and 90 μL of the cell suspension was distributed per well into a 96-well plate (Costar 96 well cell culture plate, Corning). After treating 10 μL of each compound at different concentrations onto the respective wells of the plate, it was cultured for 24 hours at 37° C. in a 5% CO2 incubator. Subsequently, 10 μL of CCK-8 was added to each well, and it was cultured again for 2 hours at 37° C. in a 5% CO2 incubator. Absorbance was then measured at 450 nm to determine the relative cell survival rate compared to untreated cells, as shown in Table 4.
The values listed in Table 4 represent the relative cell survival rates in the groups treated with each compound at different concentrations, with the cell survival rate of untreated cells set as 100%.

[2] = Table 3 (compounds not belonging to Formula 1), 10 μM
[3] = Table 3 (compounds not belonging to Formula 1), 30 μM
[4] = Table 3 (compounds not belonging to Formula 1), 50 μM
[5] = 72 h, Table 2, 10 μM, 3 days, relative to CD3/CD28+DMSO
[6] = 72 h, Table 2, 30 μM, 3 days, relative to CD3/CD28+DMSO
[7] = 72 h, Table 2, 50 μM, 3 days, relative to CD3/CD28+DMSO
[8] = Table 2, 10 μM, 3 days, relative to CD3/CD28+DMSO
[9] = Table 2, 30 μM, 3 days, relative to CD3/CD28+DMSO
[10] = Table 2, 50 μM, 3 days, relative to CD3/CD28+DMSO

| SMILES | inhibition at 10 µM (spleen T cells; [5]) [%] | inhibition at 30 µM (spleen T cells; [6]) [%] | inhibition at 50 µM (spleen T cells; [7]) [%] | Relative cell survival rate (%) ([1]; 10 μM) | Relative cell survival rate (%) ([1]; 20 μM) | Relative cell survival rate (%) ([1]; 30 μM) | Relative cell survival rate (%) ([1]; 50 μM) | further results |
| --- | --- | --- | --- | --- | --- | --- | --- | --- |
| O=C(Nc1ccccc1)c1ccncc1Br [Compound 1] |  |  |  |  |  |  |  | inhibition at 10 µM (spleen T cells; [2]): 9%; inhibition at 30 µM (spleen T cells; [3]): 6%; inhibition at 50 µM (spleen T cells; [4]): 7% |
| CCCCCCCCCCCCNC(=O)c1ccccc1C(=O)c1ccc(Cl)cc1 [Compound 16] | 0 | 100 | 100 | 121 | 101 | 92 | 85 |  |
| CCCCCCCCCCCCNC(=O)Cc1ccccc1 [Compound 25] | 20 | 90 | 99 | 95 | 90 | 87 | 84 |  |
| CCCCCCCCCCC(CNCc1ccccc1Br)Cc1ccccc1Br (stereo not shown) [Compound 44] |  |  |  | 100 | 98 | 94 | 93 |  |
| CCCCCCCCCCCCNC(=O)c1ncccc1Br [Compound 73] | 32 | 76 | 86 | 94 | 97 | 98 | 104 |  |
| CCCCCCCCCCCCNS(=O)(=O)c1c(F)cccc1F [Compound 54] | 55 | 60 | 77 | 89 | 83 | 77 | 76 |  |
| CCCCCCCCCCCCNC(=O)c1cccnc1C(F)(F)F [Compound 77] |  |  |  | 116 | 124 | 123 | 123 | Proliferation inhibition rate (%) (spleen T cells; [8]): 24%; Proliferation inhibition rate (%) (spleen T cells; [9]): 47%; Proliferation inhibition rate (%) (spleen T cells; [10]): 66% |
| CCCCCCCCCCCCNC(=O)c1cccnc1Cl [Compound 13] | 10 | 48 | 100 | 95 | 71 | 70 | 57 |  |
| CCCCCCCCCCCC(=O)Nc1ccccc1Br [Compound 42] |  |  |  | 110 | 109 | 104 | 103 |  |
| CCCCCCCCCCCCNC(=O)c1cccc2ccccc12 [Compound 18] |  |  |  | 102 | 101 | 99 | 99 |  |
| CCCCCCCCCCCCNC(=O)c1cccnc1OC [Compound 32] | 12 | 42 | 54 |  |  |  |  |  |
| CCCCCCCCCCCCNC(=O)c1cccnc1S [Compound 80] |  |  |  |  |  |  |  | Proliferation inhibition rate (%) (spleen T cells; [8]): 43%; Proliferation inhibition rate (%) (spleen T cells; [9]): 100%; Proliferation inhibition rate (%) (spleen T cells; [10]): 100% |
| O=C(NCCCc1ccccc1)c1ccccc1Br [Compound 4] |  |  |  |  |  |  |  | inhibition at 10 µM (spleen T cells; [2]): 23%; inhibition at 30 µM (spleen T cells; [3]): 12%; inhibition at 50 µM (spleen T cells; [4]): 16% |
| CCCCCCCCCCCCNC(=O)c1ncccc1Cl [Compound 11] | 10 | 62 | 99 |  |  |  |  |  |
| CCCCCCCCCCCCNC(=O)c1ccnc(C)c1 [Compound 15] | 10 | 35 | 90 |  |  |  |  |  |
| CCCCCCCCCCCCNC(=O)c1ccc(Cl)cc1Cl [Compound 60] | 10 | 72 | 98 |  |  |  |  |  |

| SMILES | inhibition at 10 µM (spleen T cells; [5]) [%] | inhibition at 30 µM (spleen T cells; [6]) [%] | inhibition at 50 µM (spleen T cells; [7]) [%] | Relative cell survival rate (%) ([1]; 10 μM) | Relative cell survival rate (%) ([1]; 20 μM) | Relative cell survival rate (%) ([1]; 30 μM) | Relative cell survival rate (%) ([1]; 50 μM) | further results |
| --- | --- | --- | --- | --- | --- | --- | --- | --- |
| CCCCCC(=O)Nc1cccc(CNC(=O)c2ccccc2Br)c1 [Compound 49] |  |  |  | 98 | 98 | 98 | 98 |  |
| Cc1ccccc1NC(=O)c1ccccc1F [Compound 3] |  |  |  |  |  |  |  | inhibition at 10 µM (spleen T cells; [2]): 9%; inhibition at 30 µM (spleen T cells; [3]): 15%; inhibition at 50 µM (spleen T cells; [4]): 18% |
| CCCCCCCCCCCCNC(=O)c1ccc2cccc(O)c2n1 [Compound 21] |  |  |  | 101 | 106 | 109 | 124 |  |
| CCCCCCCCCCCCNC(=O)c1cccnc1SC [Compound 24] |  |  |  | 71 | 68 | 61 | 54 |  |
| CCCCCC(=O)Nc1ccccc1CNC(=O)c1ccccc1Br [Compound 48] |  |  |  | 100 | 99 | 99 | 98 |  |
| CCCCCCCCCCCCNC(=O)c1ncccn1 [Compound 79] | 46 | 88 | 100 |  |  |  |  |  |
| CCCCCCCCCCCCNC(=O)c1cc2ccccc2cc1N [Compound 23] |  |  |  | 66 | 62 | 62 | 54 |  |
| O=C(Nc1ccccc1Br)c1ccccc1Br [Compound 9] |  |  |  |  |  |  |  | inhibition at 10 µM (spleen T cells; [2]): 0%; inhibition at 30 µM (spleen T cells; [3]): 0%; inhibition at 50 µM (spleen T cells; [4]): 0%; cell proliferation read by FACS (FIG. 2) (spleen T cells; even at a concentration of 50 μM): no inhibition of cell proliferation |
| CCCCCC(=O)Nc1ccc(CNC(=O)c2ccccc2Br)cc1 [Compound 47] |  |  |  | 98 | 97 | 97 | 96 |  |
| CCCCCCCCCCCCNS(=O)(=O)c1ccccc1N [Compound 46] |  |  |  |  |  |  |  | Proliferation inhibition rate (%) (spleen T cells; [8]): 47%; Proliferation inhibition rate (%) (spleen T cells; [9]): 94%; Proliferation inhibition rate (%) (spleen T cells; [10]): 93% |
| CCCCCCCCCCCCNS(=O)(=O)c1cnccc1O [Compound 72] | 68 | 80 | 86 |  |  |  |  |  |
| CCCCCCCCCCCCNC(=O)c1nccc2ccccc12 [Compound 20] |  |  |  | 113 | 108 | 107 | 105 |  |
| CCCCCCCCCCCCNC(=O)c1cc(Cl)cc(Cl)c1O [Compound 28] | 11 | 47 | 91 |  |  |  |  |  |
| CCCCCCCCCCCCNC(=O)c1ccc2ccccc2n1 [Compound 22] |  |  |  | 42 | 42 | 39 | 36 |  |
| Cc1ccccc1NC(=O)c1ccccc1Br [Compound 2] |  |  |  |  |  |  |  | inhibition at 10 µM (spleen T cells; [2]): 11%; inhibition at 30 µM (spleen T cells; [3]): 10%; inhibition at 50 µM (spleen T cells; [4]): 11% |
| O=C(NCCCCCCCCCC1CO1)c1ccccc1Br (stereo not shown) [Compound 17] |  |  |  | 106 | 80 | 80 | 66 |  |
